Laboratory results as given in PMC10486604 (Cancers, 2023).
Where two headings read alike, the source gives them in different places.

How the values were obtained:
[1] = In vivo pharmacokinetics in 786-O tumor-bearing mice; settings: female, NMRI nu/nu, mouse, iv, 4 mg/kg
Description: Plasma and tumor samples were collected and frozen at <−15 °C until sample analysis. Samples were analyzed for concentrations of respective SMDCs and the released payload 1 by LC/MS/MS. […] All pharmacokinetic parameters were calculated by non-compartmental methods.

LoVo = test: In vitro proliferation (MTT) assay in presence and absence of NE, LoVo; type: cell-based; settings: Homo sapiens, 72 h
Description: (§1) The in vitro cytotoxicity was evaluated in cancer cell lines NCI-H292 and LoVo after a 72-h continuous exposure to the presence or absence of 20 nM NE using MTT assays (ATCC, Manassas, VA, USA). IC50 values were determined as the concentration of compound required for 50% inhibition of cell viability.

NCI-H292 = test: In vitro proliferation (MTT) assay in presence and absence of NE, NCI-H292; type: cell-based; settings: Homo sapiens, 72 h
Description: as §1

[2] = payload 1 dosed directly 1 mg/kg IV, 786-O tumor-bearing mice, cited from earlier work
MA4296 = test: Orthotopic TNBC PDX model MA4296; type: in vivo, mouse; settings: orthotopic TNBC PDX models, both schedules
Description: Two orthotopic TNBC PDX mouse models were performed. Tumor cells were inoculated into the mammary fat pad of mice. Therefore, the mice were anesthetized shortly before surgery. After disinfection of the skin, mice received a small incision in the skin between the 4th and 5th dug. Each mouse was implanted with 2.5 × 10^6 (MA4296) or 5 × 10^6 (MA15191) cells. Treatment started on day 20 after inoculation, when palpable tumor sizes reached 127 mm^3 (day 33 for MA15191). […] Tumors were measured twice weekly with calipers, and their volume was calculated with the following formula: (length × width^2)/2. The body weight was also determined two times weekly. Reasons for termination were tumor size > 1.5 cm^3 or poor general condition. At the end of the study, tissue sampling for IHC and PCR analyses was performed. The statistical analysis was performed using mixed-effect analysis with Tukey’s multiple comparisons test (GraphPad Prism 8.4.2) to calculate significance in tumor growth inhibition between vehicle and treatment groups over time. The Kruskal–Wallis test was used to determine significance at study days 43 and 47. Additionally, the unpaired t-test was performed.

LXFL529 = test: PDX model LXFL529 (NSCLC), subcutaneous; type: in vivo, mouse; settings: across PDX models
Description: Studies were conducted according to all applicable international, national, and local laws and followed the national guidelines for the Care and Use of Laboratory Animals of the Society of Laboratory Animal Science (GV-SOLAS). All animal experiment protocols were approved by the Regional Council Committee on the Ethics of Animal Experiments. Non-small-cell lung (LXFL529) and renal (RXF2667) PDX mouse models comprised six groups each with 10 animals. Tumor fragments (3–4 mm edge length) were transplanted, and tumor growth was monitored until a median size of about 120–150 mm^3 was achieved. […] Both experiments were terminated after a three-week recovery phase on day 63. Animals were monitored at least twice daily on working days and at least once daily on weekends (tumor size and body weight measurement). Colon (CXF2068) and triple-negative breast cancer (TNBC) (MAXF BR120) PDX mouse models were performed as described above with changes in schedule. […] The statistical significance of antitumor efficacy was analyzed by the non-parametric Kruskal–Wallis test, followed by Dunn’s method for multiple comparisons using GraphPad Prism bioanalytic software (version 9.10), with p < 0.05 as significant. Additionally, a nonpaired t-test was performed using GraphPad Prism (version 9.10).

human NE = biological target: T1, human NE (Homo sapiens, UniProt P08246); test: Human NE biochemical cleavage assay; settings: read-out: Km (cleavage to payload 1)
T1 sequence (P08246 30-267): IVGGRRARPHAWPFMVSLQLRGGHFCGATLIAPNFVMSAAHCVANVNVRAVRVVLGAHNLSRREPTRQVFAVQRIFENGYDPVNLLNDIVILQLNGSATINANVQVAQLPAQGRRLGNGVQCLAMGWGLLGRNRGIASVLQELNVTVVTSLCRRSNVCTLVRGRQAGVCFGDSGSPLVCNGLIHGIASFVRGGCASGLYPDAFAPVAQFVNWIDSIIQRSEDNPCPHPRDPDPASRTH
Description: Then, 125 μL of pre-heated buffer (100 mM Tris pH 7.5, 150 mM NaCl, 10 mM CaCl2, and 0.05% BSA) was added to each incubation. The reaction was started by adding 0.5 or 1 nM activated mouse elastase (according to manufacturer’s protocol) or human NE to the reaction vials. A negative control without elastase was run under the same conditions. The reaction was stopped at 0, 4.5, 8, and 12 min by the addition of acidified acetonitrile/0.2% formic acid. Camptothecin was used as internal standard for the LC/MS/MS analysis.

Row | Structure (SMILES) | half-life [1] | IC50 (LoVo; absence of hNE, read-out: LoVo IC50) | IC50 (LoVo; presence of 20 nM hNE, read-out: LoVo + hNE IC50) | IC50 (NCI-H292; absence of hNE, read-out: NCI H292 IC50) | IC50 (NCI-H292; presence of 20 nM hNE, read-out: NCI H292 + hNE IC50) | AUCplasma of payload 1 (VIP126) [2] | AUCtumor of payload 1 (VIP126) [2] | AUCtumor/AUCplasma of payload 1 (VIP126) [2] | AUCtumor/AUCplasma of payload 1 (VIP126) ([2]; listed as Payload 1 (VIP126)) | Tolerability (MA4296) | Tolerability (weight loss) (LXFL529) | Km (human NE; enzyme concentration 0.5 nmol) | Km (human NE; enzyme concentration 1.0 nmol)
1 | CCCNC(=O)Nc1cccc(S(=O)(=O)Nc2cccc([C@H](CC(=O)O)NC(=O)Nc3ccc(NC(=O)NCCOCCOCCOCCC(=O)N[C@@H](CC(=O)O)C(=O)N4CCC[C@H]4C(=O)N[C@H](C(=O)O[C@]4(CC)C(=O)OCc5c4cc4n(c5=O)Cc5c-4nc4ccccc4c5CC)C(C)C)cc3)c2)c1 [8e2] | 1.3 h |  |  |  |  |  |  |  |  |  |  |  | 
2 | CCc1c2c(nc3ccccc13)-c1cc3c(c(=O)n1C2)COC(=O)[C@]3(O)CC [compound 1, 7-ethyl camptothecin] |  | 1.9 nM | 1.85 nM | 1.54 nM | 1.35 nM | 0.301 µg·h/mL | 0.185 µg·h/mL | 0.61 | 0.616 |  |  |  | 
3 | CCCNC(=O)Nc1cccc(S(=O)(=O)Nc2cccc([C@@H](CC(=O)O)NC(=O)Nc3ccc(NC(=O)NCCOCCOCCOCCC(=O)N[C@@H](CC(=O)O)C(=O)N4CCC[C@H]4C(=O)N[C@H](C(=O)O[C@]4(CC)C(=O)OCc5c4cc4n(c5=O)Cc5c-4nc4ccccc4c5CC)C(C)C)cc3)c2)c1 [VIP236] | 0.807 h |  |  |  |  |  |  |  |  | well tolerated | well tolerated | 9.4 µM | 9.6 µM
